Experimental data as given in ChEMBL document CHEMBL3885861, “Open TG-GATES”.

Organism: Rattus norvegicus
Test: Open TG-GATES - Regimen: Single
Format: toxicity, organism-based, Sprague-Dawley
Set-up: regimen Single, gender Male, age 6 weeks
Settings: in vivo, po, route gavage; for Bas / Eos / Fbg / Hb / Lym / MCH / MCHC / MCV / Mono / Neu / RBC / Ret / WBC / APTT: tissue Blood; for KIDNEY_L / KIDNEY_R / KIDNEY_TOTAL: tissue Kidney; for LIVER: tissue Liver; for ALP / ALT / AST / CRE / Ca / Cl / DBIL / GLC / IP / K / LDH / Na / PL / RALB / TBIL / TC / TG / TP / gamma-GTP: tissue Plasma
[1] = 75 mg/kg, 3 h, dose level Middle

O=C1CN(/N=C/c2ccc(-c3ccc([N+](=O)[O-])cc3)o2)C(O)=N1 [DANTROLENE]
Bas (25 mg/kg, 3 h, dose level Low): 0%
Eos (25 mg/kg, 3 h, dose level Low): 1%
Fbg (25 mg/kg, 3 h, dose level Low): 205.2 mg/dL
Hb (25 mg/kg, 3 h, dose level Low): 13.6 g/dL
Lym (25 mg/kg, 3 h, dose level Low): 74.4%
MCH (25 mg/kg, 3 h, dose level Low): 22.5 pg
MCHC (25 mg/kg, 3 h, dose level Low): 34.1%
MCV (25 mg/kg, 3 h, dose level Low): 65.9 fL
Mono (25 mg/kg, 3 h, dose level Low): 8.4%
Neu (25 mg/kg, 3 h, dose level Low): 16.2%
RBC (25 mg/kg, 3 h, dose level Low): 604.8 x10_4/ul
Ret (25 mg/kg, 3 h, dose level Low): 10.4%
WBC (25 mg/kg, 3 h, dose level Low): 99.1 x10_2/uL
KIDNEY_L (25 mg/kg, 3 h, dose level Low): 1 g
KIDNEY_R (25 mg/kg, 3 h, dose level Low): 1 g
KIDNEY_TOTAL (25 mg/kg, 3 h, dose level Low): 1.9 g
LIVER (25 mg/kg, 3 h, dose level Low): 9.5 g
ALP (25 mg/kg, 3 h, dose level Low): 1009.8 IU/L
ALT (25 mg/kg, 3 h, dose level Low): 38.4 IU/L
AST (25 mg/kg, 3 h, dose level Low): 69.2 IU/L
CRE (25 mg/kg, 3 h, dose level Low): 0.6 mg/dL
Ca (25 mg/kg, 3 h, dose level Low): 10.5 mg/dL
Cl (25 mg/kg, 3 h, dose level Low): 101.8 meq/L
DBIL (25 mg/kg, 3 h, dose level Low): 0.03 mg/dL
GLC (25 mg/kg, 3 h, dose level Low): 213 mg/dL
IP (25 mg/kg, 3 h, dose level Low): 10.8 mg/dL
K (25 mg/kg, 3 h, dose level Low): 4.8 meq/L
LDH (25 mg/kg, 3 h, dose level Low): 97.8 IU/L
Na (25 mg/kg, 3 h, dose level Low): 139.2 meq/L
PL (25 mg/kg, 3 h, dose level Low): 141.6 mg/dL
RALB (25 mg/kg, 3 h, dose level Low): 3.8 g/dL
TBIL (25 mg/kg, 3 h, dose level Low): 0.4 mg/dL
TC (25 mg/kg, 3 h, dose level Low): 83.4 mg/dL
TG (25 mg/kg, 3 h, dose level Low): 39.4 mg/dL
TP (25 mg/kg, 3 h, dose level Low): 5.6 g/dL
gamma-GTP (25 mg/kg, 3 h, dose level Low): 2.6 IU/L
TERMINAL_BW (25 mg/kg, 6 h, dose level Low): 191.8 g
APTT (25 mg/kg, 6 h, dose level Low): 16.9 s
Bas (25 mg/kg, 6 h, dose level Low): 0%
Eos (25 mg/kg, 6 h, dose level Low): 1.2%
Fbg (25 mg/kg, 6 h, dose level Low): 210.4 mg/dL
Hb (25 mg/kg, 6 h, dose level Low): 13.8 g/dL
Lym (25 mg/kg, 6 h, dose level Low): 77%
MCH (25 mg/kg, 6 h, dose level Low): 21.9 pg
MCHC (25 mg/kg, 6 h, dose level Low): 34.3%
MCV (25 mg/kg, 6 h, dose level Low): 64.1 fL
Mono (25 mg/kg, 6 h, dose level Low): 8%
Neu (25 mg/kg, 6 h, dose level Low): 14%
RBC (25 mg/kg, 6 h, dose level Low): 632.4 x10_4/ul
Ret (25 mg/kg, 6 h, dose level Low): 12.6%
WBC (25 mg/kg, 6 h, dose level Low): 89.5 x10_2/uL
KIDNEY_L (25 mg/kg, 6 h, dose level Low): 0.9 g
KIDNEY_R (25 mg/kg, 6 h, dose level Low): 0.9 g
KIDNEY_TOTAL (25 mg/kg, 6 h, dose level Low): 1.8 g
LIVER (25 mg/kg, 6 h, dose level Low): 8.7 g
ALP (25 mg/kg, 6 h, dose level Low): 698.6 IU/L
ALT (25 mg/kg, 6 h, dose level Low): 30.4 IU/L
AST (25 mg/kg, 6 h, dose level Low): 60.4 IU/L
CRE (25 mg/kg, 6 h, dose level Low): 0.5 mg/dL
Ca (25 mg/kg, 6 h, dose level Low): 10.3 mg/dL
Cl (25 mg/kg, 6 h, dose level Low): 103 meq/L
DBIL (25 mg/kg, 6 h, dose level Low): 0.07 mg/dL
GLC (25 mg/kg, 6 h, dose level Low): 188.2 mg/dL
IP (25 mg/kg, 6 h, dose level Low): 9.7 mg/dL
K (25 mg/kg, 6 h, dose level Low): 4.7 meq/L
LDH (25 mg/kg, 6 h, dose level Low): 100.8 IU/L
Na (25 mg/kg, 6 h, dose level Low): 139.2 meq/L
PL (25 mg/kg, 6 h, dose level Low): 141.6 mg/dL
RALB (25 mg/kg, 6 h, dose level Low): 3.7 g/dL
TBIL (25 mg/kg, 6 h, dose level Low): 0.4 mg/dL
TC (25 mg/kg, 6 h, dose level Low): 78.8 mg/dL
TG (25 mg/kg, 6 h, dose level Low): 44 mg/dL
TP (25 mg/kg, 6 h, dose level Low): 5.3 g/dL
gamma-GTP (25 mg/kg, 6 h, dose level Low): 2 IU/L
TERMINAL_BW (25 mg/kg, 9 h, dose level Low): 189.9 g
APTT (25 mg/kg, 9 h, dose level Low): 16.4 s
Bas (25 mg/kg, 9 h, dose level Low): 0%
Eos (25 mg/kg, 9 h, dose level Low): 0.6%
Fbg (25 mg/kg, 9 h, dose level Low): 209.8 mg/dL
Hb (25 mg/kg, 9 h, dose level Low): 13.9 g/dL
Lym (25 mg/kg, 9 h, dose level Low): 80.6%
MCH (25 mg/kg, 9 h, dose level Low): 21.6 pg
MCHC (25 mg/kg, 9 h, dose level Low): 33.1%
MCV (25 mg/kg, 9 h, dose level Low): 65.4 fL
Mono (25 mg/kg, 9 h, dose level Low): 5%
Neu (25 mg/kg, 9 h, dose level Low): 14%
RBC (25 mg/kg, 9 h, dose level Low): 644 x10_4/ul
Ret (25 mg/kg, 9 h, dose level Low): 10.9%
WBC (25 mg/kg, 9 h, dose level Low): 83 x10_2/uL
KIDNEY_L (25 mg/kg, 9 h, dose level Low): 0.9 g
KIDNEY_R (25 mg/kg, 9 h, dose level Low): 0.9 g
KIDNEY_TOTAL (25 mg/kg, 9 h, dose level Low): 1.8 g
LIVER (25 mg/kg, 9 h, dose level Low): 8.2 g
ALP (25 mg/kg, 9 h, dose level Low): 723.6 IU/L
ALT (25 mg/kg, 9 h, dose level Low): 22.2 IU/L
AST (25 mg/kg, 9 h, dose level Low): 49.4 IU/L
CRE (25 mg/kg, 9 h, dose level Low): 0.6 mg/dL
Ca (25 mg/kg, 9 h, dose level Low): 10.4 mg/dL
Cl (25 mg/kg, 9 h, dose level Low): 104.4 meq/L
DBIL (25 mg/kg, 9 h, dose level Low): 0.062 mg/dL
GLC (25 mg/kg, 9 h, dose level Low): 199.4 mg/dL
IP (25 mg/kg, 9 h, dose level Low): 10.1 mg/dL
K (25 mg/kg, 9 h, dose level Low): 5.1 meq/L
LDH (25 mg/kg, 9 h, dose level Low): 75.2 IU/L
Na (25 mg/kg, 9 h, dose level Low): 139 meq/L
PL (25 mg/kg, 9 h, dose level Low): 137.2 mg/dL
RALB (25 mg/kg, 9 h, dose level Low): 3.7 g/dL
TBIL (25 mg/kg, 9 h, dose level Low): 0.4 mg/dL
TC (25 mg/kg, 9 h, dose level Low): 69.8 mg/dL
TG (25 mg/kg, 9 h, dose level Low): 42.8 mg/dL
TP (25 mg/kg, 9 h, dose level Low): 5.5 g/dL
gamma-GTP (25 mg/kg, 9 h, dose level Low): 2 IU/L
TERMINAL_BW (25 mg/kg, 24 h, dose level Low): 208.5 g
APTT (25 mg/kg, 24 h, dose level Low): 16.6 s
Bas (25 mg/kg, 24 h, dose level Low): 0%
Eos (25 mg/kg, 24 h, dose level Low): 1%
Fbg (25 mg/kg, 24 h, dose level Low): 200.4 mg/dL
Hb (25 mg/kg, 24 h, dose level Low): 13.1 g/dL
Lym (25 mg/kg, 24 h, dose level Low): 81.2%
MCH (25 mg/kg, 24 h, dose level Low): 21.9 pg
MCHC (25 mg/kg, 24 h, dose level Low): 33.5%
MCV (25 mg/kg, 24 h, dose level Low): 65.4 fL
Mono (25 mg/kg, 24 h, dose level Low): 6.8%
RBC (25 mg/kg, 24 h, dose level Low): 600.4 x10_4/ul
Ret (25 mg/kg, 24 h, dose level Low): 11.4%
WBC (25 mg/kg, 24 h, dose level Low): 97.3 x10_2/uL
KIDNEY_L (25 mg/kg, 24 h, dose level Low): 1 g
KIDNEY_R (25 mg/kg, 24 h, dose level Low): 1 g
KIDNEY_TOTAL (25 mg/kg, 24 h, dose level Low): 2 g
LIVER (25 mg/kg, 24 h, dose level Low): 10.4 g
ALP (25 mg/kg, 24 h, dose level Low): 1049.2 IU/L
ALT (25 mg/kg, 24 h, dose level Low): 35.8 IU/L
AST (25 mg/kg, 24 h, dose level Low): 71.2 IU/L
CRE (25 mg/kg, 24 h, dose level Low): 0.5 mg/dL
Ca (25 mg/kg, 24 h, dose level Low): 11.1 mg/dL
Cl (25 mg/kg, 24 h, dose level Low): 105.4 meq/L
DBIL (25 mg/kg, 24 h, dose level Low): 0.012 mg/dL
GLC (25 mg/kg, 24 h, dose level Low): 198.2 mg/dL
IP (25 mg/kg, 24 h, dose level Low): 6.5 mg/dL
K (25 mg/kg, 24 h, dose level Low): 4.7 meq/L
Na (25 mg/kg, 24 h, dose level Low): 142 meq/L
PL (25 mg/kg, 24 h, dose level Low): 142.4 mg/dL
RALB (25 mg/kg, 24 h, dose level Low): 3.9 g/dL
TBIL (25 mg/kg, 24 h, dose level Low): 0.3 mg/dL
TC (25 mg/kg, 24 h, dose level Low): 77.8 mg/dL
TG (25 mg/kg, 24 h, dose level Low): 73.2 mg/dL
TP (25 mg/kg, 24 h, dose level Low): 5.6 g/dL
gamma-GTP (25 mg/kg, 24 h, dose level Low): 1.6 IU/L
TERMINAL_BW [1]: 194 g
APTT [1]: 16.9 s
